Paper PMC9186362, “Design and biological evaluation of substituted 5,7-dihydro-6H-indolo[2,3-c]quinolin-6-one as novel selective Haspin inhibitors” (Journal of Enzyme Inhibition and Medicinal Chemistry, 2022)

Columns and labels:
Experiment in all cases: SelectScreen ZLYTE
Assay type in all cases: biochemical
FLT1 (VEGFR1) = target: T1, FLT1 (VEGFR1) (Homo sapiens, UniProt P17948); details: ATP Km, read-out: Percentage of inhibition
T1 construct: purchased Life Technologies (SelectScreen Whole Panel service)
Method in brief: (§1)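 Selectivity was assessed by testing 1 μM inhibitor on many kinases at once, recording how strongly each enzyme was inhibited in percent.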

RPS6KB1 (p70S6K) = target: T2, RPS6KB1 (p70S6K) (Homo sapiens, UniProt P23443); details: ATP Km, read-out: Percentage of inhibition
T2 construct: purchased Life Technologies (SelectScreen Whole Panel service)
Method in brief: as §1

CSK = target: T3, CSK (Homo sapiens, UniProt P41240); details: ATP Km, read-out: Percentage of inhibition
T3 construct: purchased Life Technologies (SelectScreen)
Method in brief: as §1

CDC42 BPB (MRCKB) = target: T4, CDC42 BPB (MRCKB) (Homo sapiens, UniProt Q9Y5S2); details: ATP Km, read-out: Percentage of inhibition
T4 construct: purchased Life Technologies (SelectScreen Whole Panel service)
Method in brief: as §1

PRKCZ (PKC zeta) = PRKCZ (PKC zeta) (Homo sapiens, UniProt Q05513); details: ATP Km, read-out: Percentage of inhibition
Method in brief: as §1

EGFR (ErbB1) T790M L858R = EGFR (ErbB1) T790M L858R (Homo sapiens, UniProt P00533, L858R/T790M); details: ATP Km, read-out: Percentage of inhibition
Method in brief: as §1

PIM2 = target: T5, PIM2 (Homo sapiens, UniProt Q9P1W9); details: ATP Km, read-out: Percentage of inhibition
T5 construct: purchased Life Technologies (SelectScreen Whole Panel service)
Method in brief: as §1

CAMK2B (CaMKII beta) = target: T6, CAMK2B (CaMKII beta) (Homo sapiens, UniProt Q13554); details: ATP Km, read-out: Percentage of inhibition
T6 construct: purchased Life Technologies (SelectScreen Whole Panel service)
Method in brief: as §1

ABL1 T315I = target: T7, ABL1 T315I (Homo sapiens, UniProt P00519, T315I); details: ATP Km, read-out: Percentage of inhibition
T7 construct: purchased Life Technologies (SelectScreen service)
Method in brief: as §1

PRKCA (PKC alpha) = PRKCA (PKC alpha) (Homo sapiens, UniProt P17252); details: ATP Km, read-out: Percentage of inhibition
Method in brief: as §1

STK22B (TSSK2) = target: T8, STK22B (TSSK2) (Homo sapiens, UniProt Q96PF2); details: ATP Km, read-out: Percentage of inhibition
T8 construct: purchased Life Technologies
Method in brief: as §1

TBK1 = target: T9, TBK1 (Homo sapiens, UniProt Q9UHD2); details: ATP Km, read-out: Percentage of inhibition
T9 construct: purchased Life Technologies (SelectScreen Whole Panel service)
Method in brief: as §1

MAPKAPK2 = target: T10, MAPKAPK2 (Homo sapiens, UniProt P49137); details: ATP Km, read-out: Percentage of inhibition
T10 construct: purchased Life Technologies
Method in brief: as §1

JAK2 JH1 JH2 = target: T11, JAK2 JH1 JH2 (Homo sapiens, UniProt O60674); details: ATP Km, read-out: Percentage of inhibition
T11 construct: JAK2 JH1 JH2; purchased Life Technologies
Method in brief: as §1

EPHB4 = EPHB4 (Homo sapiens, UniProt P54760); details: ATP Km, read-out: Percentage of inhibition
Method in brief: as §1

MAPK8 (JNK1) = target: T12, MAPK8 (JNK1) (Homo sapiens, UniProt P45983); details: ATP 10 µM, read-out: Percentage of inhibition
T12 construct: purchased Life Technologies (SelectScreen Whole Panel service)
Method in brief: as §1

EGFR (ErbB1) T790M = target: T13, EGFR (ErbB1) T790M (Homo sapiens, UniProt P00533, T790M); details: ATP Km, read-out: Percentage of inhibition
T13 construct: purchased Life Technologies
Method in brief: as §1

LYN B = LYN B (Homo sapiens, UniProt P07948); details: ATP Km, read-out: Percentage of inhibition
Method in brief: as §1

KIT = KIT (Homo sapiens, UniProt P10721); details: ATP Km, read-out: Percentage of inhibition
Method in brief: as §1

RET = target: T14, RET (Homo sapiens, UniProt P07949); details: ATP Km, read-out: Percentage of inhibition
T14 construct: purchased Life Technologies
Method in brief: as §1

FLT4 (VEGFR3) = target: T15, FLT4 (VEGFR3) (Homo sapiens, UniProt P35916); details: ATP Km, read-out: Percentage of inhibition
T15 construct: purchased Life Technologies (SelectScreen service)
Method in brief: as §1

MAP4K2 (GCK) = target: T16, MAP4K2 (GCK) (Homo sapiens, UniProt Q12851); details: ATP Km, read-out: Percentage of inhibition
T16 construct: purchased Life Technologies (SelectScreen Whole Panel service)
Method in brief: as §1

AXL = target: T17, AXL (Homo sapiens, UniProt P30530); details: ATP Km, read-out: Percentage of inhibition
T17 construct: purchased Life Technologies
Method in brief: as §1

MARK2 = target: T18, MARK2 (Homo sapiens, UniProt Q7KZI7); details: ATP Km, read-out: Percentage of inhibition
T18 construct: purchased Life Technologies (SelectScreen Whole Panel service)
Method in brief: as §1

FGFR3 V555M = target: T19, FGFR3 V555M (Homo sapiens, UniProt P22607, V555M); details: ATP Km, read-out: Percentage of inhibition
T19 construct: purchased Life Technologies (SelectScreen Whole Panel service)
Method in brief: as §1

IRAK4 = IRAK4 (Homo sapiens, UniProt Q9NWZ3); details: ATP Km, read-out: Percentage of inhibition
Method in brief: as §1

CSNK2A1 (CK2 alpha 1) = CSNK2A1 (CK2 alpha 1) (Homo sapiens, UniProt P68400); details: ATP Km, read-out: Percentage of inhibition
Method in brief: as §1

YES1 = YES1 (Homo sapiens, UniProt P07947); details: ATP Km, read-out: Percentage of inhibition
Method in brief: as §1

PRKCH (PKC eta) = PRKCH (PKC eta) (Homo sapiens, UniProt P24723); details: ATP Km, read-out: Percentage of inhibition
Method in brief: as §1

SYK = target: T20, SYK (Homo sapiens, UniProt P43405); details: ATP Km, read-out: Percentage of inhibition
T20 construct: purchased Life Technologies (SelectScreen service)
Method in brief: as §1

MST1R (RON) = MST1R (RON) (Homo sapiens, UniProt Q04912); details: ATP Km, read-out: Percentage of inhibition
Method in brief: as §1

TYRO3 (RSE) = TYRO3 (RSE) (Homo sapiens, UniProt Q06418); details: ATP Km, read-out: Percentage of inhibition
Method in brief: as §1

ABL1 = target: T21, ABL1 (Homo sapiens, UniProt P00519); details: ATP Km, read-out: Percentage of inhibition
T21 construct: purchased Life Technologies (SelectScreen Whole Panel service)
Method in brief: as §1

ALK = target: T22, ALK (Homo sapiens, UniProt Q9UM73); details: ATP Km, read-out: Percentage of inhibition
T22 construct: purchased Life Technologies (SelectScreen service)
Method in brief: as §1

MAPK7 (ERK5) = target: T23, MAPK7 (ERK5) (Homo sapiens, UniProt Q13164); details: ATP Km, read-out: Percentage of inhibition
T23 construct: purchased Life Technologies (SelectScreen)
Method in brief: as §1

SNF1LK2 = target: T24, SNF1LK2 (Homo sapiens, UniProt Q9H0K1); details: ATP Km, read-out: Percentage of inhibition
T24 construct: purchased Life Technologies (SelectScreen service)
Method in brief: as §1

FRAP1 (mTOR) = FRAP1 (mTOR) (Homo sapiens, UniProt P42345); details: ATP Km, read-out: Percentage of inhibition
Method in brief: as §1

CAMK2D (CaMKII delta) = target: T25, CAMK2D (CaMKII delta) (Homo sapiens, UniProt Q13557); details: ATP Km, read-out: Percentage of inhibition
T25 construct: purchased Life Technologies (SelectScreen Whole Panel)
Method in brief: as §1

T2 sequence (P23443 whole entry): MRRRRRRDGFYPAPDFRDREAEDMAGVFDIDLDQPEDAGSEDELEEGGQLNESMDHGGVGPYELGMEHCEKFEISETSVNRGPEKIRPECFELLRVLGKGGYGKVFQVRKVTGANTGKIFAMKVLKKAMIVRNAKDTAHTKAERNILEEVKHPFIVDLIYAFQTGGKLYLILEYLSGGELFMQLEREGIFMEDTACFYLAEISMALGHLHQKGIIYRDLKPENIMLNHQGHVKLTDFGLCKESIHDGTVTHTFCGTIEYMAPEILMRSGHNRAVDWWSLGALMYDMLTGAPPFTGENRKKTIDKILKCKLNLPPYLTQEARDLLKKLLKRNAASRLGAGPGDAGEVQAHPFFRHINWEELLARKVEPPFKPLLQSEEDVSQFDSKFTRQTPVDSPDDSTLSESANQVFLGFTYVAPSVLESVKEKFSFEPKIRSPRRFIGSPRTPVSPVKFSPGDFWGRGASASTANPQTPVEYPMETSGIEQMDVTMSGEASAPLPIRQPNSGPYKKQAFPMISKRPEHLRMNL
EGFR (ErbB1) T790M L858R, sequence (P00533 25-1210 T790M/L858R): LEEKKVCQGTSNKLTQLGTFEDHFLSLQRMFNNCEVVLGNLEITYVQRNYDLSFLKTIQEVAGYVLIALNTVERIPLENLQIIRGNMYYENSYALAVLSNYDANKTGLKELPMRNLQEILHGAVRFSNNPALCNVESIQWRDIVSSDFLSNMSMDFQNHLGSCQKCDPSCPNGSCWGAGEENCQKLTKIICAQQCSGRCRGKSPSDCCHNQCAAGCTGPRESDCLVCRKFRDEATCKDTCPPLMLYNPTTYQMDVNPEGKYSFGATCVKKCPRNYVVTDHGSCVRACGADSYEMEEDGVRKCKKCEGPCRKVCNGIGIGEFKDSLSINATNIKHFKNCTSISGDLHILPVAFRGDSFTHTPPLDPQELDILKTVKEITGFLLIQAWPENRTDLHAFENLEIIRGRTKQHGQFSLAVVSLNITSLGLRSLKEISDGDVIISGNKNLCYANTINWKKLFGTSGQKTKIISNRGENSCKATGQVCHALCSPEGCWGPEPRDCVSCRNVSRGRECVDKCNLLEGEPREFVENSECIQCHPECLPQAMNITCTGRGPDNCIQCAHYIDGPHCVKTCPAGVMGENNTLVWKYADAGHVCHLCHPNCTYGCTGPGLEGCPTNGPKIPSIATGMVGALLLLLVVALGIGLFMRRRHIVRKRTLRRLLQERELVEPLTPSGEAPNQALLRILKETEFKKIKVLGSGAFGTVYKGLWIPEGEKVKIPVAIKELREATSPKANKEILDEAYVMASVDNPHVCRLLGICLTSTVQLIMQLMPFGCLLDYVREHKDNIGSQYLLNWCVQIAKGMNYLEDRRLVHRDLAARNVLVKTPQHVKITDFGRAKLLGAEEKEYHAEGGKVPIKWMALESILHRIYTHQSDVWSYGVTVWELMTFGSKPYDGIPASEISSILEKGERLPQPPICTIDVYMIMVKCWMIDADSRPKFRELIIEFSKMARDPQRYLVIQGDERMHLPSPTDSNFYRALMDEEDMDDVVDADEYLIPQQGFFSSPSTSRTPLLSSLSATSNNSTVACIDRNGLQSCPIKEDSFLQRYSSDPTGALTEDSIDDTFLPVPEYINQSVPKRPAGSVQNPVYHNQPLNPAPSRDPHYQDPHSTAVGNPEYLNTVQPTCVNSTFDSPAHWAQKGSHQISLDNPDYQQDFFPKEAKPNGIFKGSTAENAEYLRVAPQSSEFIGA
T1 sequence (P17948 27-1338): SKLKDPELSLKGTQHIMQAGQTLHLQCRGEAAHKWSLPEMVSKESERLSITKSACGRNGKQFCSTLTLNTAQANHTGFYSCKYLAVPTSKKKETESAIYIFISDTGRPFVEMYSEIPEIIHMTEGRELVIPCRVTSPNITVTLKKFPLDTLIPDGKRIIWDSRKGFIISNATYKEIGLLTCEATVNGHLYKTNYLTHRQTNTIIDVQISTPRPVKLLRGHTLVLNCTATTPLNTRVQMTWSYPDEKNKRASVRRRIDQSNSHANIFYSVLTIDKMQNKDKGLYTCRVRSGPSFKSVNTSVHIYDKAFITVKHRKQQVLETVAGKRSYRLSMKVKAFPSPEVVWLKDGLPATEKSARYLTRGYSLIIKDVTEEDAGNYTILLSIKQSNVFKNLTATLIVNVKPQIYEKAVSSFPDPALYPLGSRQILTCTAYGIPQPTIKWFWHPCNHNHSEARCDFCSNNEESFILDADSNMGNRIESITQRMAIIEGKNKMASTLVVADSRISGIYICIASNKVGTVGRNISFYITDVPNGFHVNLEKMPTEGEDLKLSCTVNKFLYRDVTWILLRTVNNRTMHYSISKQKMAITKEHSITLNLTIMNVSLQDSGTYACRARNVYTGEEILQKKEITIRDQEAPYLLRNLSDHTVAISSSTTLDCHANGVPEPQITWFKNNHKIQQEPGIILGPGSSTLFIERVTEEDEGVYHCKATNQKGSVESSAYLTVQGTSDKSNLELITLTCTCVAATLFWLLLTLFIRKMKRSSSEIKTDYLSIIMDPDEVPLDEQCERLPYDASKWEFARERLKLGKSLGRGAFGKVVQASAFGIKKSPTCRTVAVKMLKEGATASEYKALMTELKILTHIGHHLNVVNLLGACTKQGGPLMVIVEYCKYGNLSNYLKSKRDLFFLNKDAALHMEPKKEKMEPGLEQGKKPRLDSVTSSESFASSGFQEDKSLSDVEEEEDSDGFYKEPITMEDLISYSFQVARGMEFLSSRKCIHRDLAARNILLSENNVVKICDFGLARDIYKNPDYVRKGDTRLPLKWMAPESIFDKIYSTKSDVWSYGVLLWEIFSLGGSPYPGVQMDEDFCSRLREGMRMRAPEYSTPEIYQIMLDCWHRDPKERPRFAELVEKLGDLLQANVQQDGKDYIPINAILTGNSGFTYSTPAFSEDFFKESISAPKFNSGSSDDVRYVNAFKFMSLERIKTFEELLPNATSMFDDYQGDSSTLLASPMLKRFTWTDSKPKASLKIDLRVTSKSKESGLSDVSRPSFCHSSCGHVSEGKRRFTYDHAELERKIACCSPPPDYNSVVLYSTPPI
T10 sequence (P49137 whole entry): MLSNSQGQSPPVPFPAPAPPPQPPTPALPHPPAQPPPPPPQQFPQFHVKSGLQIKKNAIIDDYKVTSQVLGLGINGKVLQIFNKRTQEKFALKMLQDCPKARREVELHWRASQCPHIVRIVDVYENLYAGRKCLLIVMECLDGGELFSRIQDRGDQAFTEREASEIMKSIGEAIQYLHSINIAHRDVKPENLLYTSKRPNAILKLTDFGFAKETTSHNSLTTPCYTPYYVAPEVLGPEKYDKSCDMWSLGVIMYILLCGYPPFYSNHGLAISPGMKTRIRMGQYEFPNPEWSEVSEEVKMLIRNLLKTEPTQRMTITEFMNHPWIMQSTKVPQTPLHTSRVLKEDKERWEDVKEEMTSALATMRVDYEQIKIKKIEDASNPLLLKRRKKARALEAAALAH
EPHB4, sequence (P54760 16-987): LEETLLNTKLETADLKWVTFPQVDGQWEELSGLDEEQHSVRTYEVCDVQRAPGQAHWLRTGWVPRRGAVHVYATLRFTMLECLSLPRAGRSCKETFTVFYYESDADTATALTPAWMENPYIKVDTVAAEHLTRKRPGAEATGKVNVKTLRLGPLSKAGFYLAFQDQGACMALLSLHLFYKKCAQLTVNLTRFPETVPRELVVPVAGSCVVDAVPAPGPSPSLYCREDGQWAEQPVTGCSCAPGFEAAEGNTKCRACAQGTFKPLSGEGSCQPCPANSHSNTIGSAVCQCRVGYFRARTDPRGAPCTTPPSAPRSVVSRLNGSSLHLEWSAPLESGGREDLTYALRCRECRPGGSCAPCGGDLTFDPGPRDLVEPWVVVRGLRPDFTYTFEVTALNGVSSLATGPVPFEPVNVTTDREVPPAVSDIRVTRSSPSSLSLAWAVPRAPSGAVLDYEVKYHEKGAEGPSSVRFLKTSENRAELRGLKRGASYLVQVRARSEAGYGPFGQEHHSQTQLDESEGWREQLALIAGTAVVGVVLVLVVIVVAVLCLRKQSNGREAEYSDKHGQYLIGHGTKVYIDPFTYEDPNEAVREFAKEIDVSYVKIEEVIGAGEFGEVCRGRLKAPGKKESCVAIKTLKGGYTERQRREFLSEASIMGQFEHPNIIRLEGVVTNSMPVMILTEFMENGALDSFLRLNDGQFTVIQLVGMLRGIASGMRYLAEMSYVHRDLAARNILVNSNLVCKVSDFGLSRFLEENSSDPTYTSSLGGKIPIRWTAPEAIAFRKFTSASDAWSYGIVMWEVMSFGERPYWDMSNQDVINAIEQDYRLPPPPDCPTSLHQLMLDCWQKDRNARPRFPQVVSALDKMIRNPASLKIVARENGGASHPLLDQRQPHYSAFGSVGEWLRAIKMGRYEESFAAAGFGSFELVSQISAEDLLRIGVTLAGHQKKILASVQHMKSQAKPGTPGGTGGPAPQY

## COc1ccc2[nH]c3c(=O)[nH]c4ccc(O)cc4c3c2c1 [Compound 55, 2-Hydroxy-10-methoxy-5,7-dihydro-6H-indolo[2,3-c]quinolin-6-one]
FLT1 (VEGFR1)
  inhibition at 1 µM: 10%
RPS6KB1 (p70S6K)
  inhibition at 1 µM: 12%
CSK
  inhibition at 1 µM: 9%
CDC42 BPB (MRCKB)
  inhibition at 1 µM: 10%
PRKCZ (PKC zeta)
  inhibition at 1 µM: 7%
EGFR (ErbB1) T790M L858R
  inhibition at 1 µM: 20%
PIM2
  inhibition at 1 µM: 18%
CAMK2B (CaMKII beta)
  inhibition at 1 µM: 12%
ABL1 T315I
  inhibition at 1 µM: 24%
PRKCA (PKC alpha)
  inhibition at 1 µM: 14%
STK22B (TSSK2)
  inhibition at 1 µM: 5%
TBK1
  inhibition at 1 µM: 49%
MAPKAPK2
  inhibition at 1 µM: 2%
JAK2 JH1 JH2
  inhibition at 1 µM: 33%
EPHB4
  inhibition at 1 µM: 21%
MAPK8 (JNK1)
  inhibition at 1 µM: 15%
EGFR (ErbB1) T790M
  inhibition at 1 µM: 30%
LYN B
  inhibition at 1 µM: 67%
KIT
  inhibition at 1 µM: 6%
RET
  inhibition at 1 µM: 97%
FLT4 (VEGFR3)
  inhibition at 1 µM: 72%
MAP4K2 (GCK)
  inhibition at 1 µM: 47%
AXL
  inhibition at 1 µM: 37%
MARK2
  inhibition at 1 µM: 12%
FGFR3 V555M
  inhibition at 1 µM: 46%
IRAK4
  inhibition at 1 µM: 61%
CSNK2A1 (CK2 alpha 1)
  inhibition at 1 µM: 14%
YES1
  inhibition at 1 µM: 61%
PRKCH (PKC eta)
  inhibition at 1 µM: 15%
SYK
  inhibition at 1 µM: 82%
MST1R (RON)
  inhibition at 1 µM: 6%
TYRO3 (RSE)
  inhibition at 1 µM: 60%
ABL1
  inhibition at 1 µM: 43%
ALK
  inhibition at 1 µM: 24%
MAPK7 (ERK5)
  inhibition at 1 µM: 8%
SNF1LK2
  inhibition at 1 µM: 24%
FRAP1 (mTOR)
  inhibition at 1 µM: 6%
CAMK2D (CaMKII delta)
  inhibition at 1 µM: 50%
